Measured values from patent US12268702B2, “Antitumor pharmaceutical composition comprising azvudine and chemotherapeutic agent” (HENAN GENUINE BIOTECH CO., LTD., priority 2023, dated 2025).

How the values were obtained:
Assay type in all cases: in vivo
[1] = system: LoVo xenograft tumor model; assay: LoVo human colon cancer subcutaneous xenograft tumor model; conditions: 21st day of administration, azvudine 1 mpk, capecitabine 400 mpk, combination 1 + 400 mpk; for Tumor volume (mm^3): BALB/c nude mice, p.o. QD x 3 weeks
Procedure: Human colon cancer cells LoVo (Cat. No.: ECACC-87060101) were cultured in vitro as a monolayer in F12K medium containing 10% fetal bovine serum, 100 U/mL penicillin and 100 μg/mL streptomycin, in a 37° C. and 5% CO2 incubator. The cells were routinely digested with trypsin-EDTA and passaged twice a week. When the cell saturation reached 80%-90% and the cell number achieved the requirement, the cells were collected, counted and inoculated.
0.1 mL)(10×10^6) of LoVo cells were subcutaneously inoculated on the right back of each mouse. The grouping administration was started when the average tumor volume reached about 147 mm^3.
The tumor volume changes and the tumor weight changes in each group (on the 21st day of administration) after administration of test drugs for treating BALB/c nude mice with Lovo cell subcutaneous xenograft tumor are shown in Table 5 and Table 6 respectively.

[2] = system: OVCAR-8 human ovarian cancer model; assay: OVCAR-8 human ovarian cancer subcutaneous xenograft tumor model; conditions: azvudine 1 mg/kg, paclitaxel 15 mg/kg, avastin 10 mg/kg, combinations 1 + 15 and 1 + 10 mg/kg
Procedure: OVCAR-8 cells were cultured in RPMI1640 medium containing 10% fetal bovine serum. OVCAR-8 cells in the exponential growth phase were collected, resuspended in PBS to an appropriate concentration and mixed with Matrigel at a ratio of 1:1. The resulting mixture was used for subcutaneous inoculation of tumor in mice.
1×10^7 OVCAR-8 cells were inoculated subcutaneously on the right side of female mice. When the average tumor volume achieved 174.25 mm^3, the mice were randomly divided into groups according to tumor size.
The experimental protocols for animal experiments in this experiment were reviewed and approved by the CrownBio IACUC committee. During the experiment, the animal experiments were performed in accordance with the requirements of AAALAC. After tumor inoculation was completed, the impact of tumor growth and treatment on normal behavior of animals was routinely monitored, specifically the activity of experimental animals, food intake and water intake, body weight gain or loss (body weight was measured twice a week), eye, hair and other abnormalities. The clinical symptoms observed during the experiment were recorded in the original data. The tumor volume was calculated according to the following formula: tumor volume (mm^3)=½×(a×b^2) (where a represents long diameter and b represents short diameter).
Relative tumor proliferation rate, T/C %, refers to the percentage value of the relative tumor volume or tumor weight of the treatment group and the control group at a certain time point, which was calculated as follows: • T/C %=TRTV/CRTV×100% (TRTV: the average RTV of the treatment group; CRTV: the average RTV of the vehicle control group; RTV=Vt/V0, where V0 is the tumor volume of the animal when grouped, and Vt is the tumor volume of the animal after treatment); • or T/C %=TTW/CTW×100% (TTW: the average tumor weight of the treatment group at the end of the experiment; CTW: the average tumor weight of the vehicle control group at the end of the experiment).
Relative tumor inhibition rate, TGI (%), was calculated according to the formula as follows: TGI %=(1−T/C)×100%. (T and C are the relative tumor volumes (RTV) or tumor weights (TW) of the treatment group and the control group at a specific time point).
To compare tumor volumes of different treatment groups on a given day, first the assumption of homogeneity of variance among all groups was tested using the Bartlett test. When the p-value of Bartlett's test was not less than 0.05, whether all group means were equal was tested using one-way ANOVA. If the p-value of the one-way ANOVA was less than 0.05, pairwise comparisons among all groups were conducted using Tukey's HSD test, or pairwise comparisons between each treatment group and control group were conducted using Dunnett's t-test. When the p-value of Bartlett's test was less than 0.05, whether the medians of all groups were equal was tested using Kruskal Wallis test. If the p-value of the Kruskal Wallis test was less than 0.05, pairwise comparisons among all groups or between each treatment group and control group were conducted using Conover test, and the corresponding p-value correction was performed according to the number of groups in the multiple test.

[3] = system: Colo 205 human colon cancer model; assay: Colo 205 human colon cancer subcutaneous xenograft tumor model
Procedure: Experimental animals were 68 (48 plus 20 spare mice) BALB/c female nude mice, 7-8 weeks old (the age of mice at the time of tumor cell inoculation) and weighing 15.7-20.7 g, which were purchased from Beijing VitalRiver Experimental Animal Technology Co., Ltd. Breeding environment was SPF grade. The experimental animals were all kept in an independent ventilated box with constant temperature and humidity. The temperature of the breeding room was 20-26° C., the humidity was 40-70%. The breeding room was ventilated 10-20 times per hour. The alternating time of day and night was 12 h/12 h. The mice were continuously supplied with cobalt 60 radiation sterilized mouse complete pellet feed, and had free access to the feed. The mice drank tap water (available after sterilization with high-pressure steam), which was continuously supplied using a water-drinking bottle, and had free access to water. The mouse box was a polysulfone mouse box, which was used after sterilization under high pressure, with a size of 325 mm×210 mm×180 mm.
Colo 205 cells were cultured in RPMI1640 medium containing 10% fetal bovine serum. Colo 205 cells in the exponential growth phase were collected, resuspended in PBS to an appropriate concentration and mixed with Matrigel at a ratio of 1:1. The resulting mixture was used for subcutaneous inoculation of tumor in mice. 5×10^6 Colo 205 cells were subcutaneously inoculated on the right side of female mice. The day of inoculation was defined as Day 0. When the average tumor volume reached 110.26 mm^3, the mice were randomly divided into groups according to tumor size.
Relative tumor proliferation rate, T/C %, refers to the percentage value of the relative tumor volume or tumor weight of the treatment group and the control group at a certain time point, which was calculated as follows:
T/C %=TRTV/CRTV×100% (TRTV: the average RTV of the treatment group; CRTV: the average RTV of the vehicle control group; RTV=Vt/V0, where V0 is the tumor volume of the animal when grouped, and Vt is the tumor volume of the animal after treatment); • or T/C %=TTW/CTW×100% (TTW: the average tumor weight of the treatment group at the end of the experiment; CTW: the average tumor weight of the vehicle control group at the end of the experiment). • Relative tumor inhibition rate, TGI (%), was calculated according to the formula as follows: TGI %=(1−T/C)×100%. (T and C are the relative tumor volumes (RTV) or tumor weights (TW) of the treatment group and the control group at a specific time point).

[4] = based on tumor volume, 25th day after inoculation, p.o. QD x 3 weeks, azvudine 1 mpk, capecitabine 400 mpk, combination 1 + 400 mpk
[5] = based on tumor weight, azvudine 1 mpk, capecitabine 400 mpk, combination 1 + 400 mpk

**Q.** How did the “Tumor volume (mm^3)” value [1] turn out when `[N-]=[N+]=N[C@]1(CO)O[C@@H](n2ccc(N)nc2=O)[C@@H](F)[C@@H]1O` [Azvudine, azvudine] was run?
**A.** 902 ± 163 mm^3

**Q.** What about the “Tumor volume (mm^3)” value ([1]; listed as azvudine) of the same molecule?
**A.** 902 mm^3

**Q.** What about the “Tumor weight” value [1] of the same molecule?
**A.** 0.937 ± 0.142 g

**Q.** And the “T/C (%)” value ([1]; based on tumor volume)?
**A.** 62.00%

**Q.** And the “TGI (%)” value ([1]; based on tumor volume)?
**A.** 43.40%

**Q.** What about the “T/C (%)” value ([1]; based on tumor weight) of the same molecule?
**A.** 66.37%

**Q.** And the “T/C (%)” value ([2]; 34th day after grouping)?
**A.** 81.91%

**Q.** And the “TGI (%)” value ([2]; 34th day after grouping)?
**A.** 18.09%

**Q.** And the “Tumor volume (x ± S)” value ([2]; 34th day after grouping)?
**A.** 460.67 ± 105.37(6)

**Q.** What about the average tumor volume ([2]; 34th day of administration) of the same molecule?
**A.** 460.67 mm^3

**Q.** What about the Tumor volume ([3]; 25th day after inoculation (20th day after grouping), BALB/c nude mice, p.o. QD x 3 weeks, azvudine 1 mpk, capecitabine 400 mpk, combination 1 + 400 mpk) of the same molecule?
**A.** 985.14 ± 108.58(6)

**Q.** What about the average tumor volume ([3]; 25th day after tumor inoculation (20th day after grouping), azvudine 1 mg/kg, capecitabine 400 mg/kg, combination 1 + 400 mg/kg) of the same molecule?
**A.** 985.14 mm^3

**Q.** What about the “T/C (%)” value [3, 4] of the same molecule?
**A.** 67.57%

**Q.** And the “TGI (%)” value [3, 4]?
**A.** 32.43%

**Q.** And the “T/C (%)” value [3, 5]?
**A.** 28.19%

**Q.** And the TGI [3, 5]?
**A.** 71.81

**Q.** And the “Tumor weight (mg)” value ([3]; end of experiment, p.o. QD x 3 weeks, azvudine 1 mpk, capecitabine 400 mpk, combination 1 + 400 mpk)?
**A.** 986.10 ± 107.78(6) mg
